Results taken from ChEMBL document CHEMBL3507680, “University of Dundee, Gates Library screen for HepG2 cell viability”.

Test: Human HepG2 cell viability assay in 384 well format
Format: toxicity, cell-based
Design: dose 125 nL, time 70.5 hour; concentration not given beside the values
Conditions: HepG2 cells, read-out: Inhibition

| SMILES | cytotoxicity at 70.5 h [%] |
| --- | --- |
| CC(C)Cc1nc(C[S+]([O-])CC(=O)NCc2ccccc2)no1 (stereo not given) | -5.17 |
| COc1nc(C)ccc1CNC(=O)NC(c1ncc(C)s1)C1CC1 (stereo not given) | -2.73 |
| NC(=O)COc1cccc(Cn2cccn2)c1 | -3.94 |
| CN1CCC(Nc2ccc(F)cc2OCC(F)(F)F)C1=O (stereo not given) | -0.0891 |
| CC(C(N)=O)N1CCN(c2ncc(Cl)cn2)CC1 (stereo not given) | -5.36 |
| CC(C(=O)N1CCCC1)N1CCN(c2ncc(Cl)cn2)CC1 (stereo not given) | -3.08 |
| CN1CCC(Nc2ccc(Cl)cc2OCC(F)(F)F)C1=O (stereo not given) | -3.11 |
| CC(C(=O)N1CCCCC1)N1CCN(c2ncc(Cl)cn2)CC1 (stereo not given) | -0.389 |
| CNC(=O)[C@@H](C)NC(=O)c1cc(-c2ccc(F)cc2)c(C)s1 | -3.7 |
| CNC(=O)CNC(=O)NCc1cc2c(s1)CCC(C)(C)C2 | 2.16 |
| COC(C(=O)NC1CCN(S(C)(=O)=O)CC1)c1ccccc1 (stereo not given) | 15.6 |
| O=C(NCCN1CCOCC1)NCc1ccc(-n2cccn2)cc1 | 1.89 |
| CCc1ncncc1C(=O)NCCNS(=O)(=O)c1ccccc1 | 13.9 |
| Cc1nnc(NCC(c2ccco2)N(C)C)c(C#N)c1C (stereo not given) | -4.51 |
| Cc1noc(C)c1C(=O)NCCN1CCN(S(C)(=O)=O)CC1 | -1.17 |
| CCNC(=O)NC(=O)CNc1cc(C(=O)OC)cc(C(F)(F)F)c1 | -3.94 |
| CC(Cc1c(F)cccc1F)NC(=O)CN(CC(N)=O)C(C)C (stereo not given) | -2.04 |
| N#Cc1cnc(NC2CCN(C(=O)C3CC3)CC2)c(Cl)c1 | 0.703 |
| CC(=O)N1CCN(c2nc3c(cnn3C(C)(C)C)c(=O)[nH]2)CC1 | -1.03 |
| CNC(=O)NC(=O)CNc1cc(C(=O)OC)cc(C(F)(F)F)c1 | 1.77 |
| CN1CCCN(c2nc3c(cnn3C(C)(C)C)c(=O)[nH]2)CC1 | 16.5 |
| CC(C)(C)n1ncc2c(=O)[nH]c(N3CCN(CCO)CC3)nc21 | -1.33 |
| CC(C)C(O)CNC(=O)Nc1cccc(-c2nccs2)c1 (stereo not given) | -3.11 |
| COc1ccc(CNC(Cn2cncn2)c2ccccc2)cc1O (stereo not given) | -0.077 |

| SMILES | cytotoxicity at 70.5 h [%] |
| --- | --- |
| N#Cc1ccc(F)c(CN(CC(=O)N2CCCC2)CC2CCCO2)c1 (stereo not given) | 0.0703 |
| N#Cc1c(Cl)nsc1NCc1ccc(N2CCCC(C(N)=O)C2)cc1 (stereo not given) | -2.18 |
| Cc1cn2c(CN(C)C(=O)c3nccnc3N)c(C)nc2s1 | 0.596 |
| COc1ccccc1CNC(Cn1cncn1)c1ccccc1 (stereo not given) | -2.53 |
| Cc1ccoc1C(=O)N1CCOC2(CCCC2)C1 | -2.84 |
| COc1cc(C(C)NCc2cscn2)ccc1SC(F)F (stereo not given) | 30.9 |
| CCC1CCCCN1CCc1ccncc1 (stereo not given) | 29.9 |
| CCC(=O)NCc1ccccc1Cn1ccnc1 | -2.6 |
| NC(=O)C1CCN(C(=O)NCc2ccccc2Cn2ccnc2)CC1 | -6.43 |
| O=C(NCc1ccccc1Cn1ccnc1)N1CCSCC1 | -6.06 |
| COc1cc(C(C)=O)ccc1OCC(=O)N(Cc1ccsc1)C1CC1 | -12 |
| COCCN1CCC(NC(=O)Nc2cccc(F)c2)C1 (stereo not given) | -0.696 |
| O=C(NCCc1ccn(-c2ccc(F)cc2)n1)C1CCCOC1 (stereo not given) | -1.01 |
| Cc1cc(Nc2ccc3c(c2)CC(=O)N3)nc(C(C)C)n1 | -6.82 |
| Cc1cc(Nc2ccc3c(c2)CC(=O)N3)nc(C2CC2)n1 | -9.05 |
| CC1CN(C(=O)NCc2ccn(C)c2)CCN1CC(F)(F)F (stereo not given) | 32.3 |
| COc1ccc(OC)c(CCNC(=O)CCC2CCCO2)c1 (stereo not given) | -10 |
| COCCN1CCC(NC(=O)NCC2(c3ccccc3)CC2)C1 (stereo not given) | -9.2 |
| COc1cc(C(C)=O)ccc1OCC(=O)N(CC(C)C#N)C1CC1 (stereo not given) | -7.18 |
| Cc1cc(C2CCCN(Cc3ncc(C)o3)C2)n[nH]1 (stereo not given) | -10.2 |
| c1cc(CCN2CCCC2CN2CCCCC2)ccn1 (stereo not given) | 25.4 |
| CCc1ncc(C(=O)N2CCOCC2CC(=O)c2ccccc2)s1 (stereo not given) | -5.53 |
| O=C(c1cnc(NCC2CCCO2)c(Cl)c1)N1CCOCC1 (stereo not given) | -9.69 |
| Cc1cnn(CCNCc2cc(-c3ccccc3)no2)c1 | 7.59 |

| SMILES | cytotoxicity at 70.5 h [%] |
| --- | --- |
| CC(C1CC1)N(C)Cc1nnc(-c2ccco2)o1 (stereo not given) | 1.08 |
| CSc1ccc(C(C)NC(=O)c2cc(C)on2)cc1 (stereo not given) | -4.63 |
| Cc1cc(C(=O)NC2CCN(c3ncccc3C#N)CC2)on1 | -6.25 |
| CCC1CN(C(=O)Cc2coc(-c3ccccc3)n2)CCO1 (stereo not given) | -3.32 |
| Cc1nc2cc(=O)[nH]n2c(C)c1CC(=O)Nc1cnn(C)c1 | 0.718 |
| CC(C)CN(Cc1nnc(-c2ccco2)o1)CC(C)C | 2.87 |
| CCOC(=O)c1nnc2ccccc2c1N1CCN(CC)CC1 | -7.65 |
| Cc1cn2c(n1)CCC(NS(=O)(=O)c1sc(C)nc1C)C2 (stereo not given) | 3.5 |
| CC1CCC(O)(Cn2ncnc2-c2cccc(C#N)c2)CC1 (stereo not given) | -5.94 |
| CC1CCCN(Cc2ccc(CNC(=O)NCc3ccon3)cc2)C1 (stereo not given) | 2.37 |
| COc1cccc(CN2CCCC2c2ccc[nH]2)c1 (stereo not given) | 0.927 |
| CN(Cc1ccsc1)C(=O)Cn1c(CS(C)(=O)=O)nc2ccccc21 | -1.3 |
| COCCN1CCCN(C(=O)c2scnc2C)CC1 | -3.53 |
| Cc1ccc(C(=O)N(C)Cc2csc(C)n2)c(=O)[nH]1 | 1.68 |
| Cc1ccc(C(=O)N(C)Cc2ccc(Br)o2)c(=O)[nH]1 | -2.83 |
| CC(C)N(C)CC(=O)NCC(Cc1ccc(F)cc1)C(N)=O (stereo not given) | 1.22 |
| CCC(CC)C(=O)NCCC(=O)N1CCN(c2ccccn2)CC1 | 2.35 |
| NC(=O)C(CNC(=O)CCc1ccsc1)Cc1ccc(F)cc1 (stereo not given) | 21 |
| Cc1ccc(C(=O)N(C)Cc2csc(Br)c2)c(=O)[nH]1 | 1.57 |
| CCn1cnnc1C1CCN(C(=O)c2cnn(C(C)(C)C)c2)CC1 | -5.89 |
| CSC(C)C(=O)NCCC(=O)N1CCN(c2ccccn2)CC1 (stereo not given) | -3.28 |
| Cc1ccc(CC(=O)NCC(Cc2ccc(F)cc2)C(N)=O)cn1 (stereo not given) | -0.982 |
| CC(C)c1cc(C(=O)N2CCOCC2CC(=O)c2ccco2)nn1C (stereo not given) | -0.209 |
| Cc1ccc(NCCNC(=O)c2cc(CC(C)C)n[nH]2)nn1 | 4.32 |

| SMILES | cytotoxicity at 70.5 h [%] |
| --- | --- |
| CCN1CCN(C(=O)c2scnc2C)CC1 | 18.9 |
| Cc1ncsc1C(=O)N1CCN(CCC(C)C)CC1 | -6.29 |
| COCCOCC(=O)Nc1ccccc1F | -6.23 |
| COCCCN(CCOC)C(=O)Nc1ccc(Br)cc1 | -7.21 |
| CN(CCS(C)(=O)=O)C1CCCN(Cc2noc(C3CC3)n2)C1 (stereo not given) | 17.9 |
| Cc1cccc(NC(=O)c2sc(C)nc2C)n1 | -11.8 |
| CCc1noc(C(C)N2CCN(CC(=O)N3CCOCC3)CC2)n1 (stereo not given) | -4.7 |
| Cc1ccc(CNC2CCc3nc(C(C)C)nn3C2)o1 (stereo not given) | -4.86 |
| CCn1cnnc1C1CCN(C(=O)c2ccnc(N(C)C)c2)CC1 | -8.14 |
| O=C(CN1CCCC1Cn1cncn1)Nc1nncs1 (stereo not given) | 14.3 |
| Cc1nc(C)n(CC2CCCN2CC(=O)Nc2cccnc2)n1 (stereo not given) | -0.954 |
| O=C(CN1CCCC(Cn2cncn2)C1)Nc1cccnc1 (stereo not given) | 0.545 |
| Cc1ccc(NC(=O)CNc2ccccc2C(N)=O)c(C)c1 | 2.06 |
| CCOc1ncccc1NC(=O)c1ccc(C(C)=O)s1 | -14.4 |
| CCOc1ncccc1NC(=O)c1cccs1 | -10.3 |
| CC(C)NC(=O)c1nnn(-c2ccc(F)cc2)c1C1CC1 | -4.05 |
| Cc1c(C(=O)NC(C)C)nnn1-c1cccc(C(F)(F)F)c1 | -4.53 |
| CNC(=O)COc1ccc(CNCc2cc(F)ccc2F)cc1 | -2.81 |
| CC(C)CN1CCC(NC(=O)c2ccc(F)cc2F)CC1 | 0.0411 |
| CN(Cc1cnn(C)c1)C(=O)NCC1CCS(=O)(=O)C1 (stereo not given) | -4.43 |
| CCc1nnc2n1CCN(C(=O)c1ccc3cc[nH]c3c1)C2 | -4.35 |
| N#CCCCOc1cccnc1NC(=O)CC1CCCCC1 | 39.8 |
| CC(=O)NCCNC(=O)c1cccc(Cn2nc(C)cc2C)c1 | -1.57 |
| Cc1nc(-c2ccsc2)ccc1C(=O)N(C)CC(F)(F)F | -11.2 |

| SMILES | cytotoxicity at 70.5 h [%] |
| --- | --- |
| N#CCCCOc1cccnc1NC(=O)Cc1ccccc1F | 0.586 |
| CCOc1ccc(C2CCCN2Cc2nnnn2C2CC2)cc1 (stereo not given) | 0.0309 |
| COc1cccc(C2CCCN2Cc2nnnn2C2CC2)c1 (stereo not given) | -3.76 |
| Cc1cnn(CC(C)NCc2nc(-c3ccccn3)no2)c1 (stereo not given) | -7.46 |
| COc1ccc(CNCCc2cc(F)cc3c2OCOC3)c(OC)c1 | 25.5 |
| O=C(CN1CCCC1Cn1cncn1)Nc1ccc(Cl)cn1 (stereo not given) | -3.38 |
| Cc1cnn(CC2CCCCN2CC(=O)Nc2cccnc2)c1 (stereo not given) | 0.635 |
| CCc1cnc(CN(C)C2CCN(CC3CCN(C(C)=O)CC3)C2)o1 (stereo not given) | 10 |
| COc1ccc(CNC(=O)NC(C)(CO)C2CC2)c(C(F)(F)F)c1 (stereo not given) | 0.673 |
| CN(Cc1noc(C2CC2)n1)C1CCN(Cc2nc(C3CC3)no2)C1 (stereo not given) | 0.524 |
| Cc1n[nH]c(C2CN(C(=O)CCCn3cccn3)CCO2)n1 (stereo not given) | -2.71 |
| CCc1cnc(CN(C)C2CCN(CC3CCC3)C2)o1 (stereo not given) | 8.96 |
| N#CC1(C(=O)NCc2ccc(F)cc2)CCCC1 | 3.1 |
| CN(C)C(CNC(=O)c1cccc(C(N)=O)c1)c1ccccc1Cl (stereo not given) | 3.17 |
| CC(CN1CCOCC1)NC(=O)c1cc(Cl)c2c(c1)OCO2 (stereo not given) | 2.56 |
| COc1ccc(NC(=O)N(CCO)Cc2ccsc2)cc1 | -3.63 |
| COc1ccccc1NC(=O)N(CCO)Cc1ccsc1 | 5.1 |
| CC(C)c1ncncc1C(=O)NCCN1CCOCC1 | 1.2 |
| CC(C)c1ncncc1C(=O)NCCN1CCCC1 | 5.71 |
| CC(C)(C(=O)NCC(=O)NC1CC1)c1ccccc1F | 2.62 |
| CC(C)(CNC(=O)C(C)(C)c1ccccc1F)C(N)=O | 2.08 |
| COc1ccc(CNC(=O)NCC(=O)NC2CC2)c(C(F)(F)F)c1 | 21.2 |
| CCCOc1cc(C)ccc1NC(=O)N(C)C | 4.68 |
| CN(C)C(CNC(=O)c1ccc(-n2cnnn2)cc1)c1ccccc1Cl (stereo not given) | 5.44 |
